Experimental data taken from publication PMC5007552, “The hVps34‐SGK3 pathway alleviates sustained PI3K/Akt inhibition by stimulating mTORC1 and tumour growth” (The EMBO Journal, 2016).
Where “and” joins values, the source holds several entries; their conditions need not be identical. Equal entries are not always repeated.

Test system: ZR-75-1 cells
Experiment: NanoString human kinome mRNA quantification
Assay type: cell-based
Source text: Human mRNAs were hybridised to NanoString human kinome and control code sets, then subjected to quantification using NanoString software. […] To permit data compaction, and simple kinome‐wide comparisons, the fold changes are log2 transformed. […] Cell pellets were resuspended at a concentration of ~6,500 cells/μl in RLT buffer (Qiagen). […] For total copy numbers, triplicate normalised count values were averaged, and to calculate fold induction, means were divided by triplicate mean values from matched DMSO controls. P‐values were calculated using unpaired t‐test (GraphPad Prism software) by employing treated and control count data for each kinase mRNA.

For NC1(c2ccc(-c3nc4ccn5c(=O)[nH]nc5c4cc3-c3ccccc3)cc2)CCC1 [MK-2206], the “MAP2K6 Normalised counts (single replicates)” value (MAP2K6 mRNA, replicates 1-3) was 273.54 and 301.57, the “MAP2K7 Normalised counts Average” value (MAP2K7 mRNA, average of 3) was 452.7 and the “MAP2K7 Normalised counts (single replicates)” value (MAP2K7 mRNA, replicates 1-3) was 481.41 and 429.05 and 447.64. For the same compound, the “MAP3K1 Normalised counts Average” value (MAP3K1 mRNA, average of 3) was 914.477, the “MAP3K1 Normalised counts (single replicates)” value (MAP3K1 mRNA, replicates 1-3) was 890.44 and 933.79 and 919.2 and the “MAP3K2 Normalised counts Average” value (MAP3K2 mRNA, average of 3) was 686.32. The “MAP3K2 Normalised counts (single replicates)” value (MAP3K2 mRNA, replicates 1-3) was 635.93 and 734.85 and 688.18, the “MAP3K3 Normalised counts Average” value (MAP3K3 mRNA, average of 3) was 686.967 and the “MAP3K3 Normalised counts (single replicates)” value (MAP3K3 mRNA, replicates 1-3) was 685.93 and 665.35 and 709.62. The “MAP3K4 Normalised counts Average” value (MAP3K4 mRNA, average of 3) was 878.993, the “MAP3K4 Normalised counts (single replicates)” value (MAP3K4 mRNA, replicates 1-3) was 874.08 and 929.44 and 833.46 and the “MAP3K5 Normalised counts Average” value (MAP3K5 mRNA, average of 3) was 52.5933. The “MAP3K5 Normalised counts (single replicates)” value (MAP3K5 mRNA, replicates 1-3) was 46.02 and 55.49 and 56.27, the “MAP3K6 Normalised counts Average” value (MAP3K6 mRNA, average of 3) was 449.24 and the “MAP3K6 Normalised counts (single replicates)” value (MAP3K6 mRNA, replicates 1-3) was 420.51 and 453.37 and 473.84. The “MAP3K7 Normalised counts Average” value (MAP3K7 mRNA, average of 3) was 743.277, the “MAP3K7 Normalised counts (single replicates)” value (MAP3K7 mRNA, replicates 1-3) was 716.83 and 700.97 and 812.03 and the “MAP3K8 Normalised counts Average” value (MAP3K8 mRNA, average of 3) was 26.4033. For the same compound, the “MAP3K8 Normalised counts (single replicates)” value (MAP3K8 mRNA, replicates 1-3) was 26.93 and 28.56 and 23.72, the “MAP3K9 Normalised counts Average” value (MAP3K9 mRNA, average of 3) was 379.6 and the “MAP3K9 Normalised counts (single replicates)” value (MAP3K9 mRNA, replicates 1-3) was 365.97 and 402.99 and 369.84. For the same compound, the “MAP3K10 Normalised counts Average” value (MAP3K10 mRNA, average of 3) was 168.847, the “MAP3K10 Normalised counts (single replicates)” value (MAP3K10 mRNA, replicates 1-3) was 162.36 and 182.33 and 161.85 and the “MAP3K11 Normalised counts Average” value (MAP3K11 mRNA, average of 3) was 121.413. For the same compound, the “MAP3K11 Normalised counts (single replicates)” value (MAP3K11 mRNA, replicates 1-3) was 113.28 and 123.25 and 127.71, the “MAP3K12 Normalised counts Average” value (MAP3K12 mRNA, average of 3) was 52.4667 and the “MAP3K12 Normalised counts (single replicates)” value (MAP3K12 mRNA, replicates 1-3) was 51.47 and 61.57 and 44.36. For the same compound, the “MAP3K13 Normalised counts Average” value (MAP3K13 mRNA, average of 3) was 189.707, the “MAP3K13 Normalised counts (single replicates)” value (MAP3K13 mRNA, replicates 1-3) was 181.45 and 198.83 and 188.84 and the “MAP3K14 Normalised counts Average” value (MAP3K14 mRNA, average of 3) was 43.9833. For the same compound, the “MAP3K14 Normalised counts (single replicates)” value (MAP3K14 mRNA, replicates 1-3) was 37.84 and 44.2 and 49.91, the “MAP3K15 Normalised counts Average” value (MAP3K15 mRNA, average of 3) was 13.0267 and the “MAP3K15 Normalised counts (single replicates)” value (MAP3K15 mRNA, replicates 1-3) was 12.38 and 17.27 and 9.43. For the same compound, the “MAP4K1 Normalised counts Average” value (MAP4K1 mRNA, average of 3) was 25.6067, the “MAP4K1 Normalised counts (single replicates)” value (MAP4K1 mRNA, replicates 1-3) was 20.57 and 28.56 and 27.69 and the “MAP4K2 Normalised counts Average” value (MAP4K2 mRNA, average of 3) was 517.167. For the same compound, the “MAP4K2 Normalised counts (single replicates)” value (MAP4K2 mRNA, replicates 1-3) was 521.4 and 514.19 and 515.91, the “MAP4K3 Normalised counts Average” value (MAP4K3 mRNA, average of 3) was 998.393 and the “MAP4K3 Normalised counts (single replicates)” value (MAP4K3 mRNA, replicates 1-3) was 947.71 and 1044.12 and 1003.35. The “MAP4K4 Normalised counts Average” value (MAP4K4 mRNA, average of 3) was 871.587, the “MAP4K4 Normalised counts (single replicates)” value (MAP4K4 mRNA, replicates 1-3) was 808.64 and 924.23 and 881.89 and the “MAP4K5 Normalised counts Average” value (MAP4K5 mRNA, average of 3) was 2400.42. The “MAP4K5 Normalised counts (single replicates)” value (MAP4K5 mRNA, replicates 1-3) was 2332.97 and 2437.58 and 2430.72, the “MAPK1 Normalised counts Average” value (MAPK1 mRNA, average of 3) was 3519.07 and the “MAPK1 Normalised counts (single replicates)” value (MAPK1 mRNA, replicates 1-3) was 3459.18 and 3429.68 and 3668.36. The “MAPK3 Normalised counts Average” value (MAPK3 mRNA, average of 3) was 2954.55, the “MAPK3 Normalised counts (single replicates)” value (MAPK3 mRNA, replicates 1-3) was 2922.89 and 2952.74 and 2988.02 and the “MAPK4 Normalised counts Average” value (MAPK4 mRNA, average of 3) was 4.88. The “MAPK4 Normalised counts (single replicates)” value (MAPK4 mRNA, replicates 1-3) was 3.29 and 5.1 and 6.25, the “MAPK6 Normalised counts Average” value (MAPK6 mRNA, average of 3) was 1788.65 and the “MAPK6 Normalised counts (single replicates)” value (MAPK6 mRNA, replicates 1-3) was 1729.42 and 1778.2 and 1858.34. The “MAPK7 Normalised counts Average” value (MAPK7 mRNA, average of 3) was 144.45, the “MAPK7 Normalised counts (single replicates)” value (MAPK7 mRNA, replicates 1-3) was 156 and 134.55 and 142.8 and the “MAPK8 Normalised counts Average” value (MAPK8 mRNA, average of 3) was 551.453. For the same compound, the “MAPK8 Normalised counts (single replicates)” value (MAPK8 mRNA, replicates 1-3) was 558.67 and 556.75 and 538.94, the “MAPK9 Normalised counts Average” value (MAPK9 mRNA, average of 3) was 3428.01 and the “MAPK9 Normalised counts (single replicates)” value (MAPK9 mRNA, replicates 1-3) was 3385.55 and 3472.25 and 3426.23. For the same compound, the “MAPK10 Normalised counts Average” value (MAPK10 mRNA, average of 3) was 51.74, the “MAPK10 Normalised counts (single replicates)” value (MAPK10 mRNA, replicates 1-3) was 66.92 and 32.03 and 56.27 and the “MAPK11 Normalised counts Average” value (MAPK11 mRNA, average of 3) was 204.103. The “MAPK11 Normalised counts (single replicates)” value (MAPK11 mRNA, replicates 1-3) was 193.27 and 212.73 and 206.31, the “MAPK12 Normalised counts Average” value (MAPK12 mRNA, average of 3) was 217.317 and the “MAPK12 Normalised counts (single replicates)” value (MAPK12 mRNA, replicates 1-3) was 225.99 and 210.13 and 215.83. For the same compound, the “MAPK13 Normalised counts Average” value (MAPK13 mRNA, average of 3) was 1105.76, the “MAPK13 Normalised counts (single replicates)” value (MAPK13 mRNA, replicates 1-3) was 1118.59 and 1094.51 and 1104.17 and the “MAPK14 Normalised counts Average” value (MAPK14 mRNA, average of 3) was 677.43. The “MAPK14 Normalised counts (single replicates)” value (MAPK14 mRNA, replicates 1-3) was 691.38 and 666.22 and 674.69, the “MAPK15 Normalised counts Average” value (MAPK15 mRNA, average of 3) was 105.53 and the “MAPK15 Normalised counts (single replicates)” value (MAPK15 mRNA, replicates 1-3) was 90.56 and 110.22 and 115.81. For the same compound, the “MAPKAPK2 Normalised counts Average” value (MAPKAPK2 mRNA, average of 3) was 1630.94, the “MAPKAPK2 Normalised counts (single replicates)” value (MAPKAPK2 mRNA, replicates 1-3) was 1646.7 and 1595.77 and 1650.35 and the “MAPKAPK3 Normalised counts Average” value (MAPKAPK3 mRNA, average of 3) was 413.777. The “MAPKAPK3 Normalised counts (single replicates)” value (MAPKAPK3 mRNA, replicates 1-3) was 380.52 and 429.05 and 431.76, the “MAPKAPK5 Normalised counts Average” value (MAPKAPK5 mRNA, average of 3) was 1446.88 and the “MAPKAPK5 Normalised counts (single replicates)” value (MAPKAPK5 mRNA, replicates 1-3) was 1508.54 and 1415.94 and 1416.16. The “MARK1 Normalised counts Average” value (MARK1 mRNA, average of 3) was 415.69, the “MARK1 Normalised counts (single replicates)” value (MARK1 mRNA, replicates 1-3) was 399.6 and 430.79 and 416.68 and the “MARK2 Normalised counts Average” value (MARK2 mRNA, average of 3) was 1522.43. For the same compound, the “MARK2 Normalised counts (single replicates)” value (MARK2 mRNA, replicates 1-3) was 1510.36 and 1537.56 and 1519.36, the “MARK3 Normalised counts Average” value (MARK3 mRNA, average of 3) was 1279.49 and the “MARK3 Normalised counts (single replicates)” value (MARK3 mRNA, replicates 1-3) was 1275.85 and 1283.02 and 1279.61. For the same compound, the “MARK4 Normalised counts Average” value (MARK4 mRNA, average of 3) was 1238.46, the “MARK4 Normalised counts (single replicates)” value (MARK4 mRNA, replicates 1-3) was 1216.76 and 1258.7 and 1239.92 and the “MAST1 Normalised counts Average” value (MAST1 mRNA, average of 3) was 64.11. For the same compound, the “MAST1 Normalised counts (single replicates)” value (MAST1 mRNA, replicates 1-3) was 68.74 and 54.62 and 68.97 and the “MAST2 Normalised counts Average” value (MAST2 mRNA, average of 3) was 721.127.
